Several values for one entry are separate records, joined by “and”; a condition that tells them apart may be missing. Equal values may be shown once.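 Growth conditions: 96-well plates. Treatment: test compound, 48 hours, 5 concentrations. Analysis: linear interpolation between bracketing concentrations; unreached endpoints set to highest concentration. Here, GI50 denotes the concentration required for 50% inhibition of growth. TGI: concentration producing complete growth inhibition.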
Legend:
Assay in all cases: growth of human tumour cells (NCI), 48 h
[1] = system: HCC-2998 colon
[2] = system: OVCAR-3 ovarian
[3] = system: SK-OV-3 ovarian
[4] = system: MDA-MB-231 breast
[5] = system: SF-268 CNS
[6] = system: COLO 205 colon
[7] = system: MOLT-4 leukemia
[8] = system: OVCAR-5 ovarian
[9] = system: U251 CNS
[10] = system: DU-145 prostate

SMILES | GI50 [1] | TGI [1] | GI50 [2] | TGI [2] | GI50 [3] | TGI [3] | GI50 [4] | TGI [4] | GI50 [5] | TGI [5] | GI50 [6] | TGI [6] | GI50 [7] | TGI [7] | GI50 [8] | TGI [8] | GI50 [9] | TGI [9] | GI50 [10] | TGI [10]
COC(=O)[C@]1(C)CCC[C@@]2(C)C3=C(CC[C@H]12)C[C@@H](CC(OC(C)=O)OC(C)=O)[C@@H](C)C3 | 9.32 µM | 16.3 µM | 10.7 µM | 27.9 µM | 20.7 µM | > 50 µM | 8.81 µM | 19.2 µM | 7.85 µM | 16.9 µM | 11 µM | 27.4 µM | 18.5 µM | > 50 µM | 9.89 µM | 18.4 µM | 13.4 µM | > 28.9 µM | 10.4 µM | 23.3 µM
C=C1C(=O)O[C@@H]2/C=C(/C)[C@@H](OC(C)=O)C[C@@H](O)/C(C)=C\[C@@H](OC(=O)[C@]3(C)O[C@@H]3C)[C@@H]12 | – | 34.5 µM | – | 23.8 µM | – | > 100 µM | – | 29.9 µM | – | 41.8 µM | – | 19.4 µM | – | 20.7 µM | – | 32.6 µM | – | 31.3 µM | – | 28.1 µM
Cc1c(C(=O)Nc2ccc(N3C[C@@H](C)O[C@@H](C)C3)nc2)cccc1-c1ccc(OC(F)(F)F)cc1 | 12.4 µM and 15.5 µM | 36.1 µM and 42.3 µM | 6.23 µM and 5.13 µM | 24 µM and 24.2 µM | 11.4 µM and 15.2 µM | 30 µM and 34.5 µM | 5.91 µM and 11.8 µM | 21.4 µM and 31.3 µM | 7.22 µM and 5.25 µM | 28.9 µM and 25.9 µM | 13.5 µM and 19.9 µM | > 65 µM and 58.8 µM | 7.59 µM and 8.47 µM | > 100 µM | 15.7 µM and 19.6 µM | 42.7 µM and 48.9 µM | 8.6 µM and 12 µM | 28 µM and 38.4 µM | 8.25 µM and 4.84 µM | 25.1 µM and 20.9 µM
CN(C(=O)C(C)(C)C)c1ccccc1I(=O)=O | > 100 µM | > 100 µM | > 100 µM | > 100 µM | > 100 µM | > 100 µM | > 100 µM | > 100 µM | > 100 µM | > 100 µM | 60.7 µM | > 100 µM | 3.45 µM | > 100 µM | > 100 µM | > 100 µM | 89.1 µM | > 100 µM | > 100 µM | > 100 µM
CC1=CC2(C)/C=C(C)/C=C\CC(O)/C=C3/C=CC(=C4C(=O)OC2(CC1C)C4=O)OC3 (stereo unspecified) | 5.78 µM | 22.2 µM | 1.18 µM | 2.5 µM | 19.4 µM | 47.3 µM | 1.99 µM | 4.25 µM | 2.09 µM | 4.75 µM | 1.47 µM | 3.65 µM | 0.47 µM | > 20.4 µM | 2.93 µM | 10.1 µM | 1.64 µM | 3.58 µM | 1.81 µM | 3.59 µM
COc1nn(C)cc1Nc1nccc(-c2c[nH]c3c(NC(=O)[C@@H](C)N4CCN(C)CC4)cccc23)n1 | > 100 µM | > 100 µM | 56.1 µM | > 100 µM | 44.2 µM | > 100 µM | 34.9 µM | > 100 µM | 36 µM | > 100 µM | – | – | 37.8 µM | > 100 µM | 42.5 µM | > 100 µM | 43.7 µM | > 100 µM | 62.8 µM | > 100 µM
CCC(=O)NC1=C(Cl)C(=O)C(NC(=O)CC)=C(Cl)C1=O | 17.4 µM | 32.1 µM | 5.14 µM | 9.56 µM | > 73.1 µM | > 100 µM | 16.9 µM | 31.2 µM | 19.7 µM | 34.2 µM | 5.97 µM | 10.8 µM | 9.55 µM | > 21.9 µM | 20.6 µM | 40.5 µM | > 41.9 µM | > 56 µM | 9.49 µM | 22.3 µM
C[C@]12CC[C@H]3[C@@H](CC[C@]4(O)C[C@@H](O)CC[C@]34C=O)[C@@]1(O)CC[C@@H]2C1=CC(=O)OC1 | – | 7.13 µM | – | 1.55 µM | – | 2.79 µM | – | > 29.6 µM | – | 2 µM | – | 6.7 µM | – | 0.907 µM | – | 3.57 µM | – | 2.9 µM | – | 0.863 µM
COC(=O)C1=C(C)NC(C)=C(C(=O)OC)C1c1cccc(/[N+]([O-])=C/c2ccccc2)c1 | – | > 100 µM | – | 31.6 µM | – | > 100 µM | – | 32 µM | – | > 100 µM | – | 30.5 µM | – | 68 µM | – | > 100 µM | – | > 100 µM | – | > 100 µM
CC(=O)OC1CC2(C)C(=CC1C1SCCS1)CCC1C2CCC2(C)C(OC(C)=O)CCC12 (stereo unspecified) | – | – | – | > 100 µM | – | > 100 µM | – | > 100 µM | – | > 100 µM | – | > 100 µM | – | > 100 µM | – | > 100 µM | – | > 100 µM | – | > 100 µM
CCC[CH2][Sn]1([CH2]CCC)[O]C(=O)c2cccc([N+](=O)[O-])c2C(=O)[O]1 | 1.11 µM | 2.45 µM | 1.06 µM | 2.3 µM | 1.69 µM | 3.07 µM | 0.271 µM | 1.04 µM | 0.431 µM | 1.65 µM | 0.617 µM | 1.93 µM | 0.409 µM | 2.98 µM | 1.11 µM | 2.49 µM | 0.633 µM | 1.94 µM | 0.795 µM | 2.05 µM
CC(=O)C(CN1C(=O)c2ccccc2C1=O)C(C)=O | – | > 100 µM | – | > 100 µM | – | > 100 µM | – | > 100 µM | – | > 100 µM | – | > 100 µM | – | – | – | > 100 µM | – | > 100 µM | – | > 100 µM
CCCCCCC(=O)NC1=C(N2CC2)C(=O)C(NC(=O)CCCCCC)=C(N2CC2)C1=O | – | – | 1.53 µM | 4.85 µM | 13 µM | > 100 µM | 3.89 µM | > 100 µM | 2.23 µM | > 100 µM | – | – | – | – | > 100 µM | > 100 µM | 2.88 µM | > 100 µM | 1.13 µM | > 100 µM
COC(=O)CC[C@@H](C)[C@H]1CC[C@H]2[C@@H]3CC[C@@H]4C[C@H](O)CC[C@]4(C)[C@H]3CC[C@]12C | – | – | – | 35 µM | – | 49.9 µM | – | 34.2 µM | – | 43.2 µM | – | 35.4 µM | – | 40.7 µM | – | 35.6 µM | – | 43.2 µM | – | 32.6 µM
Clc1ccc2c(NC3CCC(N4CCCCC4)CC3)ccnc2c1 (stereo unspecified) | – | 27.4 µM | – | 59.2 µM | – | > 100 µM | – | 40 µM | – | > 100 µM | – | 27.2 µM | – | > 100 µM | – | > 100 µM | – | 57.1 µM | – | > 100 µM
Cc1ccc(NC(=O)COc2ccc(Cl)cc2)cc1Cl | – | – | – | > 100 µM | – | > 100 µM | – | 59.7 µM | – | > 100 µM | – | > 100 µM | – | > 100 µM | – | > 100 µM | – | > 100 µM | – | > 100 µM
Cc1cc(OCc2ccc(C(F)(F)F)cc2)c2c(c1)C(=O)C=C(NCCN1CCCC1)C2=O | 1.87 µM | 3.46 µM | 2.52 µM | 6.47 µM | 3.45 µM | 10.6 µM | – | – | 1.97 µM | 4.24 µM | 1.9 µM | 3.72 µM | 3.03 µM | 10.1 µM | 3.39 µM | 12.3 µM | 1.72 µM | 3.45 µM | 6.15 µM | 18.6 µM
COC(=O)C1=C(C)NC(=S)NC1c1ccc(N(CCCl)CCCl)cc1Cl (stereo unspecified) | – | – | – | > 94 µM | – | > 100 µM | – | > 100 µM | – | 98.4 µM | – | 59.7 µM | – | 40 µM | – | > 100 µM | – | > 100 µM | – | > 81.1 µM
CCOP(=O)(OCC)/C(=C/n1c(=S)[nH]c2ccccc21)C(=O)OC | – | > 100 µM | – | – | – | > 100 µM | – | > 100 µM | – | > 100 µM | – | > 100 µM | – | > 100 µM | – | > 100 µM | – | > 100 µM | – | > 100 µM
[N-]=[N+]=C(C(=O)CN1CCCC1=O)S(=O)(=O)c1ccccc1 | – | > 100 µM | – | > 100 µM | – | – | – | > 100 µM | – | > 100 µM | – | > 100 µM | – | > 100 µM | – | > 100 µM | – | > 100 µM | – | > 100 µM
NC1CC(=O)c2c(-c3cccs3)sc(-c3cccs3)c21 (stereo unspecified) | – | – | 26.1 µM | 92.4 µM | > 100 µM | > 100 µM | 27.9 µM | > 100 µM | 30.8 µM | > 100 µM | 21.5 µM | 63.8 µM | 18.5 µM | > 100 µM | – | – | 16.7 µM | 34 µM | 14.4 µM | 32.9 µM
CN1C(=O)N(C)C2C1NC(=S)N2/N=C/C=C/c1ccccc1[N+](=O)[O-] (stereo unspecified) | 2.56 µM | > 100 µM | 0.344 µM | > 100 µM | 1.18 µM | > 100 µM | 5.02 µM | > 100 µM | 2.67 µM | > 100 µM | 1.23 µM | 6.77 µM | 0.992 µM | > 100 µM | 3.88 µM | > 100 µM | – | – | 3.81 µM | > 100 µM
Nc1nc2cc(Cl)ccc2n1N | – | > 100 µM | – | – | – | > 100 µM | – | > 100 µM | – | > 100 µM | – | > 100 µM | – | > 100 µM | – | > 100 µM | – | > 100 µM | – | > 100 µM

From PubChem BioAssay (NCI)
